Assay results published in patent US20140155445A1, “Compounds and Methods for Treating Cancer and Diseases of the Central Nervous System” (Osta Biotechnologies Inc., priority 2007, published 2014).
“Also recorded” adds a separate entry of the source.

Assays:
[1] = test system: HCT-116 colorectal carcinoma; assay: Colorectal carcinoma model HCT-116 in SCID mice; type: in vivo, human
Description: Control groups received the vehicle alone.

[2] = test system: SKMEL-V+ tumors (blood vessels, CD31 positive cells); assay: CD31 / H&E staining, microvessel density of SKMEL-V+ tumors; type: in vivo, mouse; settings: SKMEL-V+ tumors from treated mice; hydrochloride
Protocol: SKMEL-V (human melanoma cells). SKMEL-V cells were derived from SKMEL-24 cells (ATCC) by overexpression of mouse VEGF. […] Tumors were either snap frozen in liquid nitrogen or fixed in 10% buffered formalin and embedded in paraffin. […] BD PharMingen, San Diego, Calif.). […] Sections were rehydrated in PBS and then blocked with 5% normal goat serum for 1 h. The sections were then incubated overnight at 4° C. with CD31 antibody diluted 1:25 in 3% BSA-PBS. […] Paraffin-embedded material was used for Harris' hematoxylin. Microvessel density was quantified using a method described by Weidner et al ([…], and Folkman […]. Med, 1991; 324:1-8). Briefly, randomly vascularized areas were selected (hot spots) under 40× field and 100× fields. Then a 400× field was used to count microvessels in each of these areas. Single endothelial cells or clusters of endothelial cells with or without lumen were considered to be individual vessels. […] All slides were examined blindly with no prior knowledge of the treatment status.

[3] = Pharmacokinetic evaluation of QC-56 in mouse brain; type: in vivo; settings: brain tissue, i.v. tail vein injection
Description: Regular male CD1 mice, 6 weeks old, were obtained from Charles River Laboratories, St. Zotique, PQ, Canada. The mice weighed 22-28 g. The experiments were approved by the Animal Care Committee, McGill University, Montreal, Quebec. The animals were housed in individual cages and were fed standard rodent chow and water ad libitum. […] In this case, mice were anesthetized using isoflurane-based system (DISPOMED, MODUFLEX COMPACT NRB, 3975-0800-000). […] Serum was collected after the samples were centrifuged 2200×, 4° C. for 20 minutes and stored at −80° C. until analysis. For the brain tissue collection, skin of mice was removed and brain was carefully dissected out from the skull, transferred into a Petri dish, briefly washed with ice-cold phosphate-buffered saline (PBS), and immediately stored at −80° C. until further analysis.
The assay of QC-56 in mouse brain samples was carried out using a qualified LC/MS/MS assay method.

APPswe/PS1dE9 mice = assay: Behavioral studies (maze, fear conditioning) in APPswe/PS1dE9 mice; type: in vivo, mouse
Protocol: The experiments were performed at Pennington Biomedical Research Centre (PBRC) of Lousiana State University, Baton Rouge, Lousiana and were approved by the Institutional Animal Care and Use Committee (IACUC) of PBRC.
The APPswe/PS1dE9 mice were generated against a C57/BL6J background by breeding either +/+ males or females with −/− females or males, respectively.
Memantine (10 mg/kg) and both doses of QC-199 (15 mg/kg & 30 mg/kg) were prepared in batches and frozen for later use. Each compound was weighed and dissolved in injectable sterile saline solution. Memantine was prepared at a concentration of 1 mg/ml, the 15 mg/kg dose of QC-199 at a volume of 15 mg/10 ml, and the 30 mg/kg dose of QC-199 at a volume of 30 mg/10 ml. The compounds were prepared in this volume so that the mice could easily be injected based on their body weight, e.g., a 35 gram mouse was injected with 0.35 ml dosing solution.
Memantine and QC-199 dosing solutions were administered to mice via i.p. injections. The mice were weighed 3 times/week and were injected with a volume that matched their body weight. The mice were injected daily and the injection located was alternated each day to avoid potential complications from injection in the same location on a daily basis.
After reaching their respective treatment duration, the wild type and APP/PS1 double transgenic mice were run through the STM and fear conditioning. The STM consisted of one day of straight run training (running down an alley from the start box to the goal box). This phase was implemented to establish the contingency that moving forward would provide escape into the dark and dry goal box. The mice were required to reach a criterion of completing the straight run in 15 sec or less on 7 out of 9 trials over a maximum of 15 trials. […] The following day each mouse was administered 15 trials in the STM with approximately 7-10 min between each trial where they were placed into a holding cage with a towel. The latency to reach the goal box and the number of errors committed were the dependent measures of learning. However, in our experience, errors committed is much more indicative of learning and is reported for this project. Pictures of the straight run (A) and maze (B) are shown in FIG. 42, along with a schematic (C) of the maze indicating the correct path. The data from the maze was collapsed into blocks of 5 trials for data summary and presentation.
Med Associates Inc.'s MED-VFC-NIR-M NIR Video Fear Conditioning System for Mouse, Pavlovian fear conditioning was conducted after the STM. On Day 1 the mice were placed in Context 1 and given 5 tone+shock pairings. On day 2 the mice were placed back into Context 1 and their freezing response to being placed back into the original context where fear conditioning occurred was measured. Freezing is operationally defined as the cessation of all movement except that required for respiration. Freezing was measured over 10 minutes, and data were summarized in 1-min intervals. On day 3 the mice were placed into a novel context (Context 2) for 10 min. […] For the final 5 min, the tone paired with shock during fear conditioning was presented. Again, the data was summarized in 1-min intervals.
Maze data was analyzed by two-way ANOVAs to determine treatment group effects for both errors and run time after the data was collapsed into three 5 trial blocks. Planned comparisons of transgenic mice treated with saline with each of the drug treatments, memantine or QC-199 at 15 mg/kg/day and 30 mg/kg/day were conducted to evaluate group differences in the maze at each trial block and both tone and contextual fear conditioning tests. The critical a level was set at 0.05 for all statistical tests. The values in FIGS. 46A-46C represent the means±S.E.M. The data was analyzed using the SPSS statistical program version 11.0. […]

Row | SMILES | mouse mortality ([1]; 60 mg/kg, HCT-116 model (FIG. 25)) | reduction of tumor volume at the time of sacrifice compared to control ([1]; QC-56 60 mg/kg/ip, 5-FU 60 mg/kg/ip reduced to 40 mg/kg) | tumor vascularization (vessel count, size, CD31) [2] | time of maximal brain concentration [3] | AUC0→3 hrs ([3]; male CD-1 mice) | AUC0→inf ([3]; male CD-1 mice) | T1/2z ([3]; male CD-1 mice) | concentration at 180 min ([3]; male, CD-1, mouse, iv, read-out: brain concentration at 180 min post-dose) | Cmax ([3]; mouse, iv, male CD-1 mice) | effect on maze errors and contextual fear conditioning (summary) (APPswe/PS1dE9 mice; Memantine, QC-199 15 mg/kg and 30 mg/kg, dtg mice) | maze errors vs saline-treated APP/PS1 mice (APPswe/PS1dE9 mice; QC-199 30 mg/kg/day i.p., trend at Trial Block 3 (p=0.052)) | contextual fear conditioning (freezing) vs saline-treated APP/PS1 mice (APPswe/PS1dE9 mice; QC-199 15 and 30 mg/kg/day, Memantine 10 mg/kg, Time Blocks 1-4)
1 | Brc1ccc(CCC2(Cn3ccnc3)OCCO2)cc1.Cl [QC-56, 1-((2-(2-(4-Bromophenyl)ethyl)-1,3-dioxolan-2-yl)methyl)-1H-imidazole hydrochloride] | but not QC-56, induced mortality | approximately 23% | significant reduction in the density of blood vessels; also recorded: significant reduction in vascularization; also recorded: significant decrease in the size and number of blood vessels | 1 min | 60.3 µg·h/g | 158 µg·h/g | 4.30 h | 15800 ± 800 ng/g | 50200 ± 3200 ng/g | – | – | –
2 | Brc1ccc(CCCCn2ccnc2)cc1.Cl [QC-199, 1-[4-(4-bromophenyl)butyl]-1H-imidazole hydrochloride] | – | – | – | – | – | – | – | – | – | positive effect | did not exhibit improved performance at any of the Trial Blocks | none reached significance
